According to patent publication US20020137929A1, “1 - (3-heterocyclylphenyl) isothiourea, -isourea, -guanidine and -amidine herbicidal agents” (Intellectual Property Department, BASF Aktiengesellschaft, priority 1998, published 2002):

Columns and labels:
ABUTH (Velvetleaf) = assay: Postemergence herbicidal evaluation; assay type: in vivo, Abutilon theophrasti; conditions: postemergence
Method in brief: (§1)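 Visual 0–9 rating versus control (stand, vigor, malformation, size, chlorosis, overall appearance), taken four to five weeks post-spray. Two-week-old seedlings received roughly 0.0156–0.500 kg/ha active in acetone/water (50/50) with 0.5% TWEEN 20 via nozzle at 40 psi.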

AMBEL (Ragweed, Common) [1] = assay: Postemergence herbicidal evaluation; assay type: in vivo, Ambrosia artemisifolia; conditions: postemergence
Method in brief: as §1

[2] = tested on: CHEAL (Lambsquarters, Common); assay: Postemergence herbicidal evaluation; assay type: in vivo, Chenopodium album; conditions: postemergence
Method in brief: as §1

ECHCG (Barnyardgrass) = assay: Postemergence herbicidal evaluation; assay type: in vivo, Echinochloa crus-galli; conditions: postemergence
Method in brief: as §1

[3] = tested on: GLXMAW (Soybean, Williams); assay: Postemergence herbicidal evaluation; assay type: in vivo, Glycine max, (L.) Merr. cv Williams; conditions: postemergence
Method in brief: as §1

ORYSAT (Rice, Tebonnet) = assay: Postemergence herbicidal evaluation; assay type: in vivo, Oryza sativa, (L.) Tebonnet; conditions: postemergence
Method in brief: as §1

ZEAMX (Corn, Field) = assay: Postemergence herbicidal evaluation; assay type: in vivo, Zea mays; conditions: postemergence
Method in brief: as §1

AMBEL (Ragweed, Common) [4] = assay: Preemergence herbicidal evaluation; assay type: in vivo, Ambrosia artemisifolia; conditions: rated 4-5 weeks after treatment
Method in brief: (§2)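 Herbicidal effect scored visually, 0-9, at 4 to 5 weeks against a control; compound applied preemergence by aqueous acetone spray to seeded soil at about 0.0156 to 0.500 kg/ha.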

CASOB (Sicklepod) = assay: Preemergence herbicidal evaluation; assay type: in vivo, Cassia obtusifolia; conditions: rated 4-5 weeks after treatment
Method in brief: as §2

[5] = tested on: CHEAL (Lambsquarters, Common); assay: Preemergence herbicidal evaluation; assay type: in vivo, Chenopodium album; conditions: rated 4-5 weeks after treatment
Method in brief: as §2

GALAP (Galium) = assay: Preemergence herbicidal evaluation; assay type: in vivo, Galium aparine; conditions: rated 4-5 weeks after treatment
Method in brief: as §2

CYPSE (Flatsedge) [6] = assay: Preemergence weed control under flooded paddy conditions; assay type: in vivo, Cyperus serotinus; conditions: rated 3-4 weeks after treatment
Method in brief: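 Herbicidal effect is scored visually on a 0-9 scale against an untreated control, three to four weeks after compounds are pipetted into the flood water (1.5 to 3 cm deep) over seeds planted in silt loam at 0.5 cm depth. Rates: about 0.0313 to 0.500 kg/ha.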

CYPIR (Rice Flatsedge) = assay: Postemergence weed control under flooded paddy conditions; assay type: in vivo, Cyperus iria; conditions: postemergence weeds, rated 3 to 4 weeks after treatment
Method in brief: (§3)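 Injury ratings (0–9 scale covering stand, vigor, malformation, size, chlorosis and overall appearance versus control) were made three to four weeks after treatment. Test material, about 0.0313 to 0.500 kg/ha a.i. in 50/50 v/v aqueous/acetone, was added to flood water 1.5 to 3 cm deep over 3 to 5 cm weeds and 1.5 to 2.5 leaf rice.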

CYPSE (Flatsedge) [7] = assay: as above; assay type: in vivo, Cyperus serotinus; conditions: postemergence weeds, rated 3 to 4 weeks after treatment
Method in brief: as §3

C=CCOC(=O)CC1SC(=Nc2cc(-n3c(=O)cc(C(F)(F)F)n(C)c3=O)c(F)cc2Cl)N(CC=C)C1=O (stereo not shown) [Compound 65, Allyl 3-allyl-2-{(2-chloro-5-[3,6-dihydro-3-methyl-2,6-dioxo-4-(trifluoromethyl)-1(2H)-pyrimidinyl]-4-fluorophenyl}imino}-4-oxo-5-thiazolidineacetate]
ABUTH herbicidal rating (ABUTH (Velvetleaf); rate 0.0158 kg/ha): 9.0
ABUTH herbicidal rating (ABUTH (Velvetleaf); rate 0.0315 kg/ha): 9.0
ABUTH herbicidal rating (ABUTH (Velvetleaf); rate 0.0630 kg/ha): 9.0
AMBEL herbicidal rating (AMBEL (Ragweed, Common) [1]; rate 0.0158 kg/ha): 9.0
AMBEL herbicidal rating (AMBEL (Ragweed, Common) [1]; rate 0.0315 kg/ha): 7.0
AMBEL herbicidal rating (AMBEL (Ragweed, Common) [1]; rate 0.0630 kg/ha): 9.0
CHEAL herbicidal rating ([2]; rate 0.0158 kg/ha): 9.0
CHEAL herbicidal rating ([2]; rate 0.0315 kg/ha): 9.0
CHEAL herbicidal rating ([2]; rate 0.0630 kg/ha): 9.0
ECHCG herbicidal rating (ECHCG (Barnyardgrass); rate 0.0158 kg/ha): 3.0
ECHCG herbicidal rating (ECHCG (Barnyardgrass); rate 0.0315 kg/ha): 7.0
ECHCG herbicidal rating (ECHCG (Barnyardgrass); rate 0.0630 kg/ha): 7.0
GLXMAW herbicidal rating ([3]; rate 0.0158 kg/ha): 7.5
GLXMAW herbicidal rating ([3]; rate 0.0315 kg/ha): 8.0
GLXMAW herbicidal rating ([3]; rate 0.0630 kg/ha): 7.5
ORYSAT herbicidal rating (ORYSAT (Rice, Tebonnet); rate 0.0158 kg/ha): 4.0
ORYSAT herbicidal rating (ORYSAT (Rice, Tebonnet); rate 0.0315 kg/ha): 6.0
ORYSAT herbicidal rating (ORYSAT (Rice, Tebonnet); rate 0.0630 kg/ha): 6.0
ZEAMX herbicidal rating (ZEAMX (Corn, Field); rate 0.0158 kg/ha): 8.0
ZEAMX herbicidal rating (ZEAMX (Corn, Field); rate 0.0315 kg/ha): 8.0
ZEAMX herbicidal rating (ZEAMX (Corn, Field); rate 0.0630 kg/ha): 7.5
Preemergence herbicidal rating AMBEL (AMBEL (Ragweed, Common) [4]; rate 0.0156 kg/ha): 1.0
Preemergence herbicidal rating AMBEL (AMBEL (Ragweed, Common) [4]; rate 0.0313 kg/ha): 2.0
Preemergence herbicidal rating AMBEL (AMBEL (Ragweed, Common) [4]; rate 0.0625 kg/ha): 4.0
Preemergence herbicidal rating AMBEL (AMBEL (Ragweed, Common) [4]; rate 0.1250 kg/ha): 9.0
Preemergence herbicidal rating AMBEL (AMBEL (Ragweed, Common) [4]; rate 0.2500 kg/ha): 9.0
Preemergence herbicidal rating CASOB (CASOB (Sicklepod); rate 0.0156 kg/ha): 0.0
Preemergence herbicidal rating CASOB (CASOB (Sicklepod); rate 0.0313 kg/ha): 0.0
Preemergence herbicidal rating CASOB (CASOB (Sicklepod); rate 0.0625 kg/ha): 1.0
Preemergence herbicidal rating CASOB (CASOB (Sicklepod); rate 0.1250 kg/ha): 1.0
Preemergence herbicidal rating CASOB (CASOB (Sicklepod); rate 0.2500 kg/ha): 2.0
Preemergence herbicidal rating CHEAL ([5]; rate 0.0156 kg/ha): 9.0
Preemergence herbicidal rating CHEAL ([5]; rate 0.0313 kg/ha): 9.0
Preemergence herbicidal rating CHEAL ([5]; rate 0.0625 kg/ha): 9.0
Preemergence herbicidal rating CHEAL ([5]; rate 0.1250 kg/ha): 9.0
Preemergence herbicidal rating CHEAL ([5]; rate 0.2500 kg/ha): 9.0
Preemergence herbicidal rating GALAP (GALAP (Galium); rate 0.0156 kg/ha): 0.0
Preemergence herbicidal rating GALAP (GALAP (Galium); rate 0.0313 kg/ha): 0.0
Preemergence herbicidal rating GALAP (GALAP (Galium); rate 0.0625 kg/ha): 0.0
Preemergence herbicidal rating GALAP (GALAP (Galium); rate 0.1250 kg/ha): 1.0
Preemergence herbicidal rating GALAP (GALAP (Galium); rate 0.2500 kg/ha): 9.0
CYPSE herbicidal effect rating (CYPSE (Flatsedge) [6]; 0.0313 kg/ha): 0.0
CYPSE herbicidal effect rating (CYPSE (Flatsedge) [6]; 0.0625 kg/ha): 0.0
CYPSE herbicidal effect rating (CYPSE (Flatsedge) [6]; 0.1250 kg/ha): 0.0
CYPSE herbicidal effect rating (CYPSE (Flatsedge) [6]; 0.2500 kg/ha): 0.0
Herbicidal rating CYPIR (CYPIR (Rice Flatsedge); Rate 0.0313 kg/ha): 6.0
Herbicidal rating CYPIR (CYPIR (Rice Flatsedge); Rate 0.0625 kg/ha): 7.0
Herbicidal rating CYPIR (CYPIR (Rice Flatsedge); Rate 0.1250 kg/ha): 7.0
Herbicidal rating CYPIR (CYPIR (Rice Flatsedge); Rate 0.2500 kg/ha): 8.0
Herbicidal rating CYPSE (CYPSE (Flatsedge) [7]; Rate 0.0313 kg/ha): 0.0
Herbicidal rating CYPSE (CYPSE (Flatsedge) [7]; Rate 0.0625 kg/ha): 0.0
Herbicidal rating CYPSE (CYPSE (Flatsedge) [7]; Rate 0.1250 kg/ha): 0.0
Herbicidal rating CYPSE (CYPSE (Flatsedge) [7]; Rate 0.2500 kg/ha): 0.0

C#CCOC(=O)CC1SC(=Nc2cc(-n3c(=O)cc(C(F)(F)F)n(C)c3=O)c(F)cc2Cl)N(CC=C)C1=O (stereo not shown) [Compound 67, 2-Propynyl 3-allyl-2-{{2-chloro-5-[3,6-dihydro-3-methyl-2,6-dioxo-4-(trifluoromethyl)-1(2H)-pyrimidinyl]-4-fluorophenyl}imino}-4-oxo-5-thiazolidineacetate]
ABUTH herbicidal rating (ABUTH (Velvetleaf); rate 0.0158 kg/ha): 5.0
ABUTH herbicidal rating (ABUTH (Velvetleaf); rate 0.0315 kg/ha): 9.0
ABUTH herbicidal rating (ABUTH (Velvetleaf); rate 0.0630 kg/ha): 9.0
AMBEL herbicidal rating (AMBEL (Ragweed, Common) [1]; rate 0.0158 kg/ha): 6.0
AMBEL herbicidal rating (AMBEL (Ragweed, Common) [1]; rate 0.0315 kg/ha): 7.0
AMBEL herbicidal rating (AMBEL (Ragweed, Common) [1]; rate 0.0630 kg/ha): 7.0
CHEAL herbicidal rating ([2]; rate 0.0158 kg/ha): 4.0
CHEAL herbicidal rating ([2]; rate 0.0315 kg/ha): 6.0
CHEAL herbicidal rating ([2]; rate 0.0630 kg/ha): 9.0
ECHCG herbicidal rating (ECHCG (Barnyardgrass); rate 0.0158 kg/ha): 3.0
ECHCG herbicidal rating (ECHCG (Barnyardgrass); rate 0.0315 kg/ha): 6.0
ECHCG herbicidal rating (ECHCG (Barnyardgrass); rate 0.0630 kg/ha): 7.0
GLXMAW herbicidal rating ([3]; rate 0.0158 kg/ha): 8.5
GLXMAW herbicidal rating ([3]; rate 0.0315 kg/ha): 7.5
GLXMAW herbicidal rating ([3]; rate 0.0630 kg/ha): 7.5
ORYSAT herbicidal rating (ORYSAT (Rice, Tebonnet); rate 0.0158 kg/ha): 4.0
ORYSAT herbicidal rating (ORYSAT (Rice, Tebonnet); rate 0.0315 kg/ha): 4.5
ORYSAT herbicidal rating (ORYSAT (Rice, Tebonnet); rate 0.0630 kg/ha): 5.0
ZEAMX herbicidal rating (ZEAMX (Corn, Field); rate 0.0158 kg/ha): 7.5
ZEAMX herbicidal rating (ZEAMX (Corn, Field); rate 0.0315 kg/ha): 8.0
ZEAMX herbicidal rating (ZEAMX (Corn, Field); rate 0.0630 kg/ha): 8.0
Preemergence herbicidal rating AMBEL (AMBEL (Ragweed, Common) [4]; rate 0.0156 kg/ha): 0.0
Preemergence herbicidal rating AMBEL (AMBEL (Ragweed, Common) [4]; rate 0.0313 kg/ha): 0.0
Preemergence herbicidal rating AMBEL (AMBEL (Ragweed, Common) [4]; rate 0.0625 kg/ha): 3.0
Preemergence herbicidal rating AMBEL (AMBEL (Ragweed, Common) [4]; rate 0.1250 kg/ha): 7.0
Preemergence herbicidal rating AMBEL (AMBEL (Ragweed, Common) [4]; rate 0.2500 kg/ha): 7.0
Preemergence herbicidal rating CASOB (CASOB (Sicklepod); rate 0.0156 kg/ha): 0.0
Preemergence herbicidal rating CASOB (CASOB (Sicklepod); rate 0.0313 kg/ha): 0.0
Preemergence herbicidal rating CASOB (CASOB (Sicklepod); rate 0.0625 kg/ha): 0.0
Preemergence herbicidal rating CASOB (CASOB (Sicklepod); rate 0.1250 kg/ha): 2.0
Preemergence herbicidal rating CASOB (CASOB (Sicklepod); rate 0.2500 kg/ha): 2.0
Preemergence herbicidal rating CHEAL ([5]; rate 0.0156 kg/ha): 2.0
Preemergence herbicidal rating CHEAL ([5]; rate 0.0313 kg/ha): 9.0
Preemergence herbicidal rating CHEAL ([5]; rate 0.0625 kg/ha): 9.0
Preemergence herbicidal rating CHEAL ([5]; rate 0.1250 kg/ha): 9.0
Preemergence herbicidal rating CHEAL ([5]; rate 0.2500 kg/ha): 9.0
Preemergence herbicidal rating GALAP (GALAP (Galium); rate 0.0156 kg/ha): 0.0
Preemergence herbicidal rating GALAP (GALAP (Galium); rate 0.0313 kg/ha): 0.0
Preemergence herbicidal rating GALAP (GALAP (Galium); rate 0.0625 kg/ha): 0.0
Preemergence herbicidal rating GALAP (GALAP (Galium); rate 0.1250 kg/ha): 1.0
Preemergence herbicidal rating GALAP (GALAP (Galium); rate 0.2500 kg/ha): 0.0
CYPSE herbicidal effect rating (CYPSE (Flatsedge) [6]; 0.0313 kg/ha): 0.0
CYPSE herbicidal effect rating (CYPSE (Flatsedge) [6]; 0.0625 kg/ha): 3.0
CYPSE herbicidal effect rating (CYPSE (Flatsedge) [6]; 0.1250 kg/ha): 3.0
CYPSE herbicidal effect rating (CYPSE (Flatsedge) [6]; 0.2500 kg/ha): 3.0
Herbicidal rating CYPIR (CYPIR (Rice Flatsedge); Rate 0.0313 kg/ha): 5.0
Herbicidal rating CYPIR (CYPIR (Rice Flatsedge); Rate 0.0625 kg/ha): 5.0
Herbicidal rating CYPIR (CYPIR (Rice Flatsedge); Rate 0.1250 kg/ha): 5.0
Herbicidal rating CYPIR (CYPIR (Rice Flatsedge); Rate 0.2500 kg/ha): 8.0
Herbicidal rating CYPSE (CYPSE (Flatsedge) [7]; Rate 0.0313 kg/ha): 0.0
Herbicidal rating CYPSE (CYPSE (Flatsedge) [7]; Rate 0.0625 kg/ha): 3.0
Herbicidal rating CYPSE (CYPSE (Flatsedge) [7]; Rate 0.1250 kg/ha): 3.0
Herbicidal rating CYPSE (CYPSE (Flatsedge) [7]; Rate 0.2500 kg/ha): 3.0
